Biological target: T1, Human ATX protein (Homo sapiens, UniProt Q13822)
T1 construct: made in house
Test: ATX biochemical FRET assay with FS-3 substrate
Conditions: FS-3 2 μM, ATX 1.0 μg/mL, room temperature 2 hours, fluorescence 485/538 nm
In short: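 Purified human ATX (1.0 μg/mL final) preincubated with compound 30 min at room temperature in Tris pH 7.4 buffer with NaCl, KCl, CaCl2, MgCl2 and 1 mg/mL fatty acid-free BSA. FS-3 added to 2 μM final; 2 h at room temperature in the dark, fluorescence at ex 485/em 538 nm.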

| SMILES | IC50 |
| --- | --- |
| N#Cc1c(O[C@H]2CC[C@@H](C(F)(F)F)CC2)ccc2cc(C(=O)N3C4CCCC3CC(C(=O)O)C4)ccc12 (stereo partly drawn) [Example 206, 9-(5-cyano-6-((cis-4-(trifluoromethyl)cyclohexyl)oxy)-2-naphthoyl)-9-azabicyclo[3.3.1]nonane-3-carboxylic acid] | ≤ 100 nM |
| C[C@H]1CC[C@@H](Oc2ccc3cc(CN4C5CCCC4CC(C(=O)O)C5)ccc3c2C#N)CC1 (stereo partly drawn) [Example 207, 9-((5-cyano-6-((cis-4-methylcyclohexyl)oxy)naphthalen-2-yl)methyl)-9-azabicyclo[3.3.1]nonane-3-carboxylic acid] | ≤ 100 nM |
| C[C@H]1CC[C@@H](Oc2ccc3cc(C(=O)N4C5CCCC4CC(C(=O)O)C5)ccc3c2Cl)CC1 (stereo partly drawn) [Example 208, 9-(5-chloro-6-((cis-4-methylcyclohexyl)oxy)-2-naphthoyl)-9-azabicyclo[3.3.1]nonane-3-carboxylic acid] | ≤ 250 nM |
| CC(F)(F)[C@H]1CC[C@@H](Oc2ccc3cc(CN4C5CCCC4CC(C(=O)O)C5)ccc3c2C(F)(F)F)CC1 (stereo partly drawn) [Example 209, 9-((6-((cis-4-(1,1-difluoroethyl)cyclohexyl)oxy)-5-(trifluoro-methyl)naphthalen-2-yl)methyl)-9-azabicyclo[3.3.1]nonane-3-carboxylic acid] | ≤ 100 nM |
| CCC(c1ccc2c(Cl)c(O[C@H]3CC[C@@H](C)CC3)ccc2c1)N1C2CCC1CC(C(=O)O)C2 (stereo partly drawn) [Example 210, 8-(1-(5-chloro-6-((cis-4-methylcyclohexyl)oxy)naphthalen-2-yl)propyl)-8-azabicyclo[3.2.1]octane-3-carboxylic acid] | ≤ 100 nM |
| CCC(c1ccc2c(Cl)c(O[C@H]3CC[C@@H](C)CC3)ccc2c1)N1C2CCCC1CC(C(=O)O)C2 (stereo partly drawn) [Example 211, 9-(1-(5-chloro-6-((cis-4-methylcyclohexyl)oxy)naphthalen-2-yl)propyl)-9-azabicyclo[3.3.1]nonane-3-carboxylic acid] | ≤ 100 nM |
| CC[C@H]1CC[C@@H](Oc2ccc3cc(C(C)N4C5CCC4CC(C(=O)O)C5)ccc3c2C#N)CC1 (stereo partly drawn) [Example 212, 8-(1-(5-cyano-6-((cis-4-ethylcyclohexyl)oxy)naphthalen-2-yl)ethyl)-8-azabicyclo[3.2.1]octane-3-carboxylic acid] | ≤ 100 nM |
| CC[C@H]1CC[C@@H](Oc2ccc3cc(C(C)N4C5CCCC4CC(C(=O)O)C5)ccc3c2C#N)CC1 (stereo partly drawn) [Example 213, 9-(1-(5-cyano-6-((cis-4-ethylcyclohexyl)oxy)naphthalen-2-yl)ethyl)-9-azabicyclo[3.3.1]nonane-3-carboxylic acid] | ≤ 100 nM |
| CC(c1ccc2c(Cl)c(O[C@H]3CC[C@@H](C)CC3)ccc2c1)N1C2CCCC1CC(C(=O)O)C2 (stereo partly drawn) [Example 214, 9-(1-(5-chloro-6-((cis-4-methylcyclohexyl)oxy)naphthalen-2-yl)ethyl)-9-azabicyclo[3.3.1]nonane-3-carboxylic acid] | ≤ 100 nM |
| CC[C@H]1CC[C@@H](Oc2ccc3cc(C(=O)N4C5CCC4CC(C(=O)O)C5)ccc3c2Cl)CC1 (stereo partly drawn) [Example 215, 8-(5-chloro-6-((cis-4-ethylcyclohexyl)oxy)-2-naphthoyl)-8-azabicyclo[3.2.1]octane-3-carboxylic acid] | ≤ 500 nM |
| CC(c1ccc2c(C(F)(F)F)c(O[C@H]3CC[C@@H](C(C)(F)F)CC3)ccc2c1)N1C2CCC1CC(C(=O)O)C2 (stereo partly drawn) [Example 216, 8-(1-(6-((cis-4-(1,1-difluoroethyl)cyclohexyl)oxy)-5-(trifluoromethyl)naphthalen-2-yl)ethyl)-8-azabicyclo[3.2.1]octane-3-carboxylic acid] | ≤ 100 nM |
| CC(c1ccc2c(C(F)(F)F)c(O[C@H]3CC[C@@H](C(C)(F)F)CC3)ccc2c1)N1C2CCCC1CC(C(=O)O)C2 (stereo partly drawn) [Example 217, 9-(1-(6-((cis-4-(1,1-difluoroethyl)cyclohexyl)oxy)-5-(trifluoromethyl)naphthalen-2-yl)ethyl)-9-azabicyclo[3.3.1]nonane-3-carboxylic acid] | ≤ 100 nM |
| C[C@H]1CC[C@@H](Oc2ccc3cc(C(=O)N4C5CCCC4CC(C(=O)O)C5)ccc3c2C#N)CC1 (stereo partly drawn) [Example 218, 9-(5-cyano-6-((cis-4-methylcyclohexyl)oxy)-2-naphthoyl)-9-azabicyclo[3.3.1]nonane-3-carboxylic acid] | ≤ 100 nM |
| C[C@H]1CC[C@@H](Oc2ccc3cc(C(=O)N4C5CCC4CC(C(=O)O)C5)ccc3c2C#N)CC1 (stereo partly drawn) [Example 219, 8-(5-cyano-6-((cis-4-methylcyclohexyl)oxy)-2-naphthoyl)-8-azabicyclo[3.2.1]octane-3-carboxylic acid] | ≤ 100 nM |
| CCC(c1ccc2c(C#N)c(O[C@H]3CC[C@@H](CC)CC3)ccc2c1)N1C2CCC1CC(C(=O)O)C2 (stereo partly drawn) [Example 220, 8-(1-(5-cyano-6-((cis-4-ethylcyclohexyl)oxy)naphthalen-2-yl)propyl)-8-azabicyclo[3.2.1]octane-3-carboxylic acid] | ≤ 100 nM |
| CC[C@H]1CC[C@@H](Oc2ccc3cc(C(=O)N4C5CCCC4CC(C(=O)O)C5)ccc3c2C#N)CC1 (stereo partly drawn) [Example 221, 9-(5-cyano-6-((cis-4-ethylcyclohexyl)oxy)-2-naphthoyl)-9-azabicyclo[3.3.1]nonane-3-carboxylic acid] | ≤ 100 nM |
| CC[C@H]1CC[C@@H](Oc2ccc3cc(C(=O)N4C5CCC4CC(C(=O)O)C5)ccc3c2C(F)(F)F)CC1 (stereo partly drawn) [Example 222, 8-(6-((cis-4-ethylcyclohexyl)oxy)-5-(trifluoromethyl)-2-naphthoyl)-8-azabicyclo[3.2.1]octane-3-carboxylic acid] | ≤ 100 nM |
| CC[C@H]1CC[C@@H](Oc2ccc3cc(C(=O)N4C5CCC4CC(C(=O)O)C5)ccc3c2C#N)CC1 (stereo partly drawn) [Example 223, 8-(5-cyano-6-((cis-4-ethylcyclohexyl)oxy)-2-naphthoyl)-8-azabicyclo[3.2.1]octane-3-carboxylic acid] | ≤ 100 nM |
| CC[C@H]1CC[C@@H](Oc2ccc3cc(C(=O)N4C5CCCC4CC(C(=O)O)C5)ccc3c2C(F)(F)F)CC1 (stereo partly drawn) [Example 224, 9-(6-((cis-4-ethylcyclohexyl)oxy)-5-(trifluoromethyl)-2-naphthoyl)-9-azabicyclo[3.3.1]nonane-3-carboxylic acid] | ≤ 100 nM |
| CC(c1ccc2c(C#N)c(O[C@H]3CC[C@@H](C)CC3)ccc2c1)N1C2CCCC1CC(C(=O)O)C2 (stereo partly drawn) [Example 225, 9-(1-(5-cyano-6-((cis-4-methylcyclohexyl)oxy)naphthalen-2-yl)ethyl)-9-azabicyclo[3.3.1]nonane-3-carboxylic acid] | ≤ 100 nM |
| CCC(c1ccc2c(C#N)c(O[C@H]3CC[C@@H](C)CC3)ccc2c1)N1C2CCC1CC(C(=O)O)C2 (stereo partly drawn) [Example 226, 8-(1-(5-cyano-6-((cis-4-methylcyclohexyl)oxy)naphthalen-2-yl)propyl)-8-azabicyclo[3.2.1]octane-3-carboxylic acid] | ≤ 100 nM |
| CC[C@H]1CC[C@@H](Oc2ccc3cc(C(=O)N4C5CCCC4CC(C(=O)O)C5)ccc3c2Cl)CC1 (stereo partly drawn) [Example 227, 9-(5-chloro-6-((cis-4-ethylcyclohexyl)oxy)-2-naphthoyl)-9-azabicyclo[3.3.]nonane-3-carboxylic acid] | ≤ 100 nM |
| CC(c1ccc2c(C#N)c(O[C@H]3CC[C@@H](C(F)(F)F)CC3)ccc2c1)N1C2CCCC1CC(C(=O)O)C2 (stereo partly drawn) [Example 228, 9-(1-(5-cyano-6-(((1s,4s)-4-(trifluoromethyl)cyclohexyl)oxy)naphthalen-2-yl)ethyl)-9-azabicyclo[3.3.1]nonane-3-carboxylic acid] | ≤ 100 nM |
| N#Cc1c(O[C@H]2CC[C@@H](C(F)(F)F)CC2)ccc2cc(CN3C4CCCC3CC(C(=O)O)C4)ccc12 (stereo partly drawn) [Example 229, 9-((5-cyano-6-((cis-4-(trifluoromethyl)cyclohexyl)oxy)naphthalen-2-yl)methyl)-9-azabicyclo[3.3.1]nonane-3-carboxylic acid] | ≤ 100 nM |
| O=C(O)C1CC2CCCC(C1)N2Cc1ccc2c(C(F)(F)F)c(N[C@H]3CC[C@@H](C(F)(F)F)CC3)ccc2c1 (stereo partly drawn) [Example 230, 9-((5-(trifluoromethyl)-6-((cis-4-(trifluoromethyl)cyclohexyl)amino)naphthalen-2-yl)methyl)-9-azabicyclo[3.3.1]nonane-3-carboxylic acid] | ≤ 100 nM |
| COC(=O)C1CC2CCC(C1)N2C(=O)c1ccc2c(C(F)(F)F)c(N[C@H]3CC[C@@H](C(F)(F)F)CC3)ccc2c1 (stereo partly drawn) [Example 231, methyl 8-(5-(trifluoromethyl)-6-((cis-4-(trifluoromethyl)cyclohexyl)amino)-2-naphthoyl)-8-azabicyclo[3.2.1]octane-3-carboxylate] | ≤ 250 nM |
| CC(c1ccc2c(Cl)c(O[C@H]3CC[C@@H](C(F)(F)F)CC3)ccc2c1)N1C2CCC1CC(C(=O)O)C2 (stereo partly drawn) [Example 234, 8-(1-(5-chloro-6-((cis-4-(trifluoromethyl)cyclohexyl)oxy)naphthalen-2-yl)ethyl)-8-azabicyclo[3.2.1]octane-3-carboxylic acid] | ≤ 100 nM |
| CC(c1ccc2c(Cl)c(O[C@H]3CC[C@@H](C(F)(F)F)CC3)ccc2c1)N1C2CCCC1CC(C(=O)O)C2 (stereo partly drawn) [Example 235, 9-(1-(5-chloro-6-((cis-4-(trifluoromethyl)cyclohexyl)oxy)naphthalen-2-yl)ethyl)-9-azabicyclo[3.3.1]nonane-3-carboxylic acid] | ≤ 100 nM |
| CCC(c1ccc2c(Cl)c(O[C@H]3CC[C@@H](CC)CC3)ccc2c1)N1C2CCC1CC(C(=O)O)C2 (stereo partly drawn) [Example 236, 8-(1-(5-chloro-6-((cis-4-ethylcyclohexyl)oxy)naphthalen-2-yl)propyl)-8-azabicyclo[3.2.1]octane-3-carboxylic acid] | ≤ 100 nM |
| CCC(c1ccc2c(Cl)c(O[C@H]3CC[C@@H](CC)CC3)ccc2c1)N1C2CCCC1CC(C(=O)O)C2 (stereo partly drawn) [Example 237, 9-(1-(5-chloro-6-((cis-4-ethylcyclohexyl)oxy)naphthalen-2-yl)propyl)-9-azabicyclo[3.3.1]nonane-3-carboxylic acid] | ≤ 250 nM |

From patent US9944666B2, “Compounds that are S1P modulating agents and/or ATX modulating agents” (BIOGEN MA INC., priority 2012, dated 2018)
